Assay results taken from patent US10501450B2, “Anhydrate-free polymorphically pure micronized crystalline brexpiprazole di-hydrate for use in intramuscular injectable sustained release formulations” (HEXAL AG, priority 2016, dated 2019).
Read-outs that look alike come from different tables or passages of the source.

Assays:
[1] = rats, intramuscular injection, 56 days after the injection, cited from earlier work
[2] = Solubility in water at 25° C.; assay type: physicochemical
From the text: The brexpiprazole dihydrate can then be added to an aqueous medium in which it is hardly soluble to form a suspension.

[3] = Particle size distribution by laser diffraction (Malvern Mastersizer 3000, circulating aqueous suspension); assay type: physicochemical; settings: volume distribution
Experimental: For the purpose of this invention, particle size distribution is determined as the percent volume at each particle size and measured by a laser diffraction method in the context of a circulating aqueous suspension. A Malvern Mastersizer 3000 laser diffraction analyzer equipped with a Hydro EV measurement cell was used. About 50 mg of sample were filled into a 15 ml glass test tube. The sample was wetted with two drops of Tween 80 and vortexed. Then the thoroughly wetted sample was dispersed in about 7 mL of UHQ-water by vortexing until the particles were dispersed. The suspension was treated for 7 minutes in an ultrasonification bath at RT (Elma S50H). The well dispersed suspension was then measured in water by adding a sample from the center of the test tube containing the well dispersed suspension to a water-filled dispersion unit prefilled with 70 mL of water. The sample in the 70 mL dispersion unit was kept under stirring at 2000 rpm. More sample from the test tube was added, until a targeted obscuration range of 10-25 percent was achieved. The Malvern Mastersizer was operated using the following parameters:
Measurement occurred after an optical alignment of the laser was done and after a background measurement was run. A measurement sequence consisted of eight individual measurements for which the mean value was represented as a histogram.
d90 as used herein means that 90% of the particles (based on volume) are smaller than or equal to the indicated size.
d50 as used herein means that 50% of the particles (based on volume) are smaller than or equal to the indicated size.
d10 as used herein means that 10% of the particles (based on volume) are smaller than or equal to the indicated size.
Particle size distribution was measured with a Malvern Mastersizer 3000 laser diffraction analyzer equipped with a Hydro EV measurement cell. About 50 mg of sample were given into a test tube. The sample was wetted with two drops of Tween 80 and dispersed in about 7 ml of water on a Vortexer. The suspension was treated for 7 minutes in a ultrasonification bath (Elma S50H). The well dispersed suspension was afterwards measured in water at a targeted obscuration range of 10-25 percent while circulating the aqueous suspension and stirring the suspension reservoir at 2000 rpm after a waiting period of three minutes. A fraunhofer optical model was utilized to deconvolute the sample scattering patterns to yield the resultant particle size distributions. Analysis model: General purpose/normal sensitivity. Measuring/background time: about 10 sec

[4] = Polymorphic stability of brexpiprazole dihydrate during wet ball milling, checked by PXRD; assay type: physicochemical; settings: ball mill 25 Hz, 0.2 mL water, 10° C.
Experimental: The powder X-ray diffractogram was obtained with a PANalytical X'Pert PRO diffractometer equipped with a theta/theta coupled goniometer in transmission geometry, Cu-Kalpha1,2 radiation (wavelength 0.15419 nm) with a focusing mirror and a solid state PIXcel detector. The diffractogram was recorded at a tube voltage of 45 kV and a tube current of 40 mA, applying a stepsize of 0.013° 2-Theta with 40 s per step (255 channels) in the angular range of 2° to 40° 2-Theta at ambient conditions. A typical precision of the 2-Theta values is in the range of ±0.2° 2-Theta. […]
500 mg brexpiprazole dihydrate from comparative example 1 were milled in the presence of 0.2 mL water at 10° C. with a Retsch MM301 ball mill at 25 Hz for 5 min (1.5 ml jacket and 1 steel ball of 5 mm diameter). The obtained micronized crystalline material was analysed by PXRD and PSD. […] (Determined by the laser diffraction method in the context of a circulating aqueous suspension as the percent volume at each particle size and measured by a Malvern Mastersizer 3000 laser diffraction analyzer.)
500 mg brexpiprazole dihydrate from comparative example 1 were milled in the presence of 0.2 mL water at 10° C. with a Retsch MM301 ball mill at 25 Hz for 15 min (1.5 ml jacket and 1 steel ball of 5 mm diameter). The obtained micronized crystalline material was analysed by PXRD and PSD. […]

## O=c1ccc2ccc(OCCCCN3CCN(c4cccc5sccc45)CC3)cc2[nH]1 [brexpiprazole dihydrate, 7-[4-[4-(1-Benzothiophen-4-yl)piperazin-1-yl]butoxy]quinolin-2(1H)-one dihydrate]
[1]; dihydrate
  crystals detectable at the injection site: can still be detected
[2]; 25 °C
  solubility: 10 µg/mL
[3]; listed as Reference Example 1, dihydrate
  particle size distribution d90: above 25 μm

## O=c1ccc2ccc(OCCCCN3CCN(c4cccc5sccc45)CC3)cc2[nH]1 [Example 2]
[3]
  particle size distribution d10: 1.15 μm
  particle size distribution d50: 7.04 μm
  particle size distribution d90: 19 μm
[4]; 15 min
  transformation of dihydrate to anhydrate form I during micronization (PXRD peaks at 6.8°, 10.0° and 17.4°): had not transformed to brexpiprazole anhydrate form I

## O=c1ccc2ccc(OCCCCN3CCN(c4cccc5sccc45)CC3)cc2[nH]1 [Example 1]
[3]
  particle size distribution d10: 1.35 μm
  particle size distribution d50: 8.24 μm
  particle size distribution d90: 21 μm
[4]; 5 min
  transformation of dihydrate to anhydrate form I during micronization (PXRD peaks at 6.8° and 17.4°): had not transformed to brexpiprazole anhydrate form I

## O=c1ccc2ccc(OCCCCN3CCN(c4cccc5sccc45)CC3)cc2[nH]1 [brexpiprazole anhydrate]
[1]
  crystals detectable at the injection site: no longer detectable
[2]
  solubility at 25° C. in water: 18 µg/mL
